Test results taken from ChEMBL document CHEMBL3507680, “University of Dundee, Gates Library screen for HepG2 cell viability”.

Assay: Human HepG2 cell viability assay in 384 well format
Assay type: toxicity, cell-based
Design: dose 125 nL, time 70.5 hour; concentration not given beside the values
Settings: HepG2 cells, read-out: Inhibition

SMILES	cytotoxicity at 70.5 h
O=C(NCCO)c1cc(-c2ccc3c(c2)CCO3)n[nH]1	18%
COCCOc1ccc(NC(=O)C2CC(=O)N(C)C2)cn1 (centres undefined)	-4.68%
CCn1cc(CN2CCN(C(=O)N3CCOCC3)CC2)cn1	16.2%
CC(Sc1nnnn1C1CCOCC1)C(F)(F)F (centres undefined)	-7.71%
CS(=O)(=O)N[C@@H]1CN(Cc2ccccc2)C[C@H]1O	-5.89%
COC(=O)N1CCc2ccccc2C1C(=O)NCc1cccs1 (centres undefined)	-6.75%
COc1ccc(C(C)NC(=O)Nc2nnc(C)s2)cc1OC (centres undefined)	2.44%
CN(Cc1n[nH]c2c1CCCCC2)C(=O)c1cc(-c2cccn2C)n[nH]1	-5.14%
c1nc2c(c(-c3ccsc3)n1)CCN(Cc1ccoc1)CC2	19.3%
Cn1ccnc1C(=O)N1CCOC(Cc2ccccc2Cl)C1 (centres undefined)	11.6%
COCc1cc(CC2(NC3CCN(C)CC3)COC2)no1	6.14%
O=C(NCc1ccco1)N1CCCCC1c1nc(-c2ccncc2)no1 (centres undefined)	-12.6%
COc1c(CNCc2ccccc2-n2ccnc2)c(C)nn1C	8.51%
CC(C)(C)Cc1nnc(NCc2ccsc2)o1	28.5%
N#CCSCCCN1CCC(C(=O)N2CCCCCC2)CC1	-5.04%
COCCOc1ccc(NC(=O)C2CCCN(C(N)=O)C2)cn1 (centres undefined)	4.12%
Cc1ccc(CS(=O)(=O)N2CC[C@H]3[C@H]2CCN3C)cc1	-5.67%
CN1C[C@@H](NC(=O)C2CC2)C[C@H]1c1nc(-c2cnccn2)no1	1.69%
NC(=O)C1CCN(C(=O)c2ccc(Cn3cc(Br)cn3)cc2)CC1	16%
CN1CCC2(CCC1=O)CCN(C(=O)Cc1ccc(O)c(F)c1)CC2	2.31%
O=C(c1ccc(N2CCOCC2)nc1)N1CCCC(n2cccn2)C1 (centres undefined)	-13.9%
CN(C)C(=O)CO[C@@H]1CN(Cc2ccccc2F)[C@@H]2CCCO[C@@H]21	-6.14%
CCCN(Cc1cnn(C)c1)CC1CCCN(S(C)(=O)=O)C1 (centres undefined)	23.4%

SMILES	cytotoxicity at 70.5 h
CN1CCC(C)(CNC(=O)c2ccc(SCc3cccnc3)cc2)CC1	-9.14%
Cn1cnc2cc(C(=O)NS(=O)(=O)c3ccc(F)cc3)ccc21	-5.36%
CC(C(=O)N1CCn2cncc2C1)N1C[C@@H](C)O[C@@H](C)C1 (some centres undefined)	0.983%
COc1ccccc1N1CCC(CNS(=O)(=O)c2c(C)nn(C)c2C)C1 (centres undefined)	2.25%
CC(C)(C)n1ncc(C(=O)NCCCC(N)=O)c1C(F)(F)F	-9.38%
Cc1cc(NCc2cccc(C#N)c2)ccc1Br	-7.27%
CCC1=N[C@@]2(CC[C@@H]3CN(C(=O)Nc4ccccc4)C[C@@H]32)C(=O)N1CC	-85.5%
CCc1ncc2c(n1)CN(Cc1nc3c(F)cccc3[nH]1)CC2	-5.3%
O=C(c1n[nH]c(=O)c2ccccc12)N1CCCC1Cn1cccn1 (centres undefined)	-8.16%
Cc1nc(N2CCN(C(=O)c3ccccc3)CC2)c2c(n1)c(C)nn2C	-2.09%
CNc1ncccc1CN1CCN(c2cc(NC3CC3)nc(N)n2)CC1	0.197%
CCn1cc(CN2CCCN(C(=O)CCc3ccncc3)CC2)cn1	25.1%
Cc1nn(C)c(C)c1-c1cnc(CC2CCNC2)cn1 (centres undefined)	-4.3%
COc1c(C2CCCN2C(=O)c2cscn2)c(C)nn1C (centres undefined)	18.5%
CCn1nc(C)c2ncnc(N(C)C)c21	-3.05%
Cn1cnc2c1CCN(CCCS(=O)(=O)c1ccccc1)C2	24.3%
O=C(CCc1ccco1)Nc1cc(C(F)(F)F)c[nH]c1=O	-8.18%
CC(C)CC(C#N)NC(=O)CCNC(=O)C(C)(C)C (centres undefined)	2.87%
COc1cccc(CN2CCN(Cc3ccc4nonc4c3)CC2=O)c1	-0.956%
CC(=O)NCCn1ccc(-c2ccccn2)n1	-2.73%
O=C(Nc1cc(F)ccc1OCC1CCCO1)c1ccoc1 (centres undefined)	-2.66%
O=C(NCCN1CCOCC1)c1n[nH]c(=O)c2ccccc12	-10.8%
FC(F)(F)c1cc(NCCn2ncnn2)nc(-c2cccnc2)n1	-9.6%

SMILES	cytotoxicity at 70.5 h
CC(C)Sc1ncccc1C(=O)NCc1cccc(N(C)C)c1	0.244%
COc1ccc(-c2csc3c2c(N)nc(=O)n3CCCN(C)C)cc1	-8.54%
CN(Cc1nccs1)C1CCN(c2cccc(-c3cscn3)c2)CC1	10.5%
CC(C)=CCN1CCN(C(=O)CSc2ccccn2)[C@H]2CS(=O)(=O)C[C@H]21	-8.43%
CCCc1nnsc1C(=O)NCC1CCN(C(=O)c2ccncc2)CC1	25.7%
Cc1nc(-c2cc(Cl)cc3c2OC(CN)C3)c[nH]1 (centres undefined)	11.1%
COc1ccc(CN2CCC(c3cc(O)nc(C)n3)C2)c(OC)c1 (centres undefined)	-3.26%
CN(CCO)C[C@@H]1CN(Cc2ccccc2C#N)C[C@@H]1CO	-3.5%
COC[C@@]12CCC[C@@H]1CN(C(=O)CN(C)C)C2	-6.84%
CNc1ccnc(N2C[C@@H](C)[C@](O)(C3CC3)C2)n1	-3.1%
O=C(c1cc(Cl)c2c(c1)OCO2)N1CCCC(n2cncn2)C1 (centres undefined)	-4.61%
COc1ccc(CN2Cc3[nH]nc(C(=O)N(C)C)c3C2)cc1	-11.8%
CCc1nc(C)cc(N2CCN(C(=O)[C@@H]3C[C@@H]4C=C[C@H]3C4)CC2)n1	-7.28%
O=C(O)c1nnn(-c2cc(F)cc(F)c2)c1-c1ccncc1	8.43%
Fc1ccc(CNCCn2cccn2)cc1F	16.8%
COCCNC(=O)NCc1ccc(OC(C)C)c(F)c1	-10.4%
COCc1nc(C(=O)N2CCN(c3nccc(OC)n3)CC2)cs1	14.1%
CC(=O)NCCCSC1CCN(c2ccccc2Cl)C1=O (centres undefined)	-10.2%
Cc1c[nH]c(CN(C)C(C(=O)O)c2c(F)cccc2OC(C)C)n1 (centres undefined)	1.64%
Cc1[nH]c2ccccc2c1-c1ccnc(N[C@@H](C)CO)n1	-3.05%
CCNC(=O)N1CCc2ccc(NC(=O)NCc3ccsc3)cc21	9.35%
CCn1cc(CN2CCCn3nc(CNC(=O)N(C)C)cc3C2)cn1	-7.73%
CN1C(=O)C[C@H]2[C@H]1CCN2Cc1cccc(C#N)c1	-11.7%

SMILES	cytotoxicity at 70.5 h
N#Cc1ccccc1CN1C[C@@H]2CC[C@H](C1)N(Cc1cscn1)C2=O	-11.1%
Cc1nc2[nH]cnc(NCCCN3CCOCC3)c-2n1	-6.34%
Cc1noc(CCCNS(=O)(=O)N2CCCC2c2ccco2)n1 (centres undefined)	-9.07%
COc1cc(C)ccc1OCc1nc(C(=O)N2CCC(C)CC2)co1	-2.55%
OC(COc1ccccc1)CN1CCc2c(ncn2C2CC2)C1 (centres undefined)	-6.53%
CN(Cc1noc(C2CC2)n1)C1CCN(Cc2nc(C3CC3)no2)C1 (centres undefined)	0.524%
Cc1cc(C)n(CC2CN(Cc3noc(C)n3)CCO2)n1 (centres undefined)	10.1%
CC(=O)N(C)c1nc(Cn2nnnc2C(C)(C)C)cs1	-4.99%
CNC(=O)c1cn[nH]c1C1CCCN1C(=O)c1ccccn1 (centres undefined)	-1.79%
Cc1nnc(C[C@@H]2COC[C@H]3CN(C(=O)C4=CCCC4)C[C@@H]23)o1	-13.7%
Cc1cc(NCCS(C)(=O)=O)nc2ccccc12	-1.98%
CC(C)N(C)CCNC(=O)NCc1ccccc1-n1cccn1	-7.41%
COCCCN1C(=O)c2ccc(C(=O)NCCc3c[nH]cn3)cc2C1=O	1.41%
CCn1nc(C)cc1S(=O)(=O)N1CCC2(CC(=O)NC2=O)C1 (centres undefined)	-5.01%
COCC1CN(CC2CC2)Cc2ncn(CC3CC3)c21 (centres undefined)	2.41%
Cn1ccc(C(=O)Nc2nccn2Cc2ccccc2Cl)cc1=O	-7.59%
CCS(=O)(=O)NC(CCSC)C(=O)Nc1ccc(C)cc1C (centres undefined)	-88.5%
O=c1n(Cc2ccccc2F)nc2ncccn12	21%
O=C1[C@H]2CN(Cc3cccs3)C[C@H]2CN1c1cncnc1	-6.91%
Cc1nn(C)c(Cl)c1C1CCCN1C(=O)c1cnccn1 (centres undefined)	-7.92%
Cc1ccc(C(=O)N2CCCC(c3nncn3C)C2)c(C)c1 (centres undefined)	-4.5%
CCc1cnc(N)nc1N(C)CCc1cnn(C)c1	45.7%
CCOC(=O)c1n[nH]cc1CN1CCOC(Cc2ccc(F)cc2)C1 (centres undefined)	-3.8%

SMILES	cytotoxicity at 70.5 h
Cc1c[nH]c(C2COCCN2C(=O)CCc2c(C)n[nH]c2C)n1 (centres undefined)	-9.97%
COc1ccc(CC(=O)Nc2ccc3ncn(C)c(=O)c3c2)cc1	-2.82%
CC(C)OCCCN1CCCC(c2nc3ccccc3n2C(C)C)C1 (centres undefined)	13.2%
Cc1n[nH]c(C)c1CCC(=O)N(C)Cc1cn[nH]c1-c1ccc(F)cc1	5.04%
COc1ccc(C)cc1S(=O)(=O)NCCC(O)c1ccccc1 (centres undefined)	-10.5%
Cc1cccnc1CN1CCN(C(=O)c2cnn(C(C)C)c2)CC1	15.6%
CN1CCN(C2CCOCC2)CC12CCC(=O)N(CC1CC1)CC2 (centres undefined)	-6.33%
Cc1ccc(C(O)CNC(=O)CCCc2ccccn2)o1 (centres undefined)	-8.17%
CCn1nnc2c1C(COCCN(C)C)CN(c1nncs1)C2 (centres undefined)	31.1%
CN(C)c1cc(C(=O)NCC2(c3cccc(F)c3)CCOCC2)ccn1	-4.88%
Cc1cccc(NC(=O)C2CSCN2C(=O)c2cnccn2)c1C (centres undefined)	-7.92%
COc1cccc(C2CCCN2C(=O)c2cc3c([nH]c2=O)CCC3)c1 (centres undefined)	-2.15%
CN(C)CC1CN(c2ccc(C#N)cn2)CCO1 (centres undefined)	-10.1%
O=C1CSc2ccc(C(=O)N3CCCC(n4ccnc4)C3)cc2N1 (centres undefined)	-1.51%
O=c1cc(N2CCOCC2)cnn1CCc1ccc(F)cc1	-1.15%
CCOC1COC2(CCN(CC3CC3)CC2)C1 (centres undefined)	11.6%
OC[C@@H]1CCCN1c1nccc(-c2c[nH]nc2-c2ccncc2)n1	-2.39%
CCc1noc(C)c1C(=O)N1CCCN(Cc2csc(C)n2)CC1	-9.45%
O=C(NCC1CCOC1)c1cc(-c2ccc(F)cc2)[nH]n1 (centres undefined)	-10.8%
Cc1ccccc1C(=O)NCCC(=O)NS(=O)(=O)c1cccnc1	19.3%
CC(C)N(CCO)C(=O)C1CCC(=O)N(CCc2ccc(Cl)cc2)C1 (centres undefined)	-1.21%
Cc1cnn(CC2CCCCN2C(=O)c2ccc(NC3CC3)nc2)c1 (centres undefined)	-4.98%
